Laboratory results as given in US7693320B2, “Three time point lung cancer detection, diagnosis and assessment of prognosis” (Yeda Research and Development Co. Ltd., priority 2004, dated 2010).

Experiments:
[1] = cited from earlier work
[2] = set-up: species or system patients; settings: human, in vivo, iv
Text: For example, in a CT application, HU units (Hounsfield Units) measuring signal intensity S(t) are converted to Ultravist 300 concentration units (ml ultravist 300 solution/liter saline). The relationship between the measured signal intensity S(t) in HU and the concentration C(t) of contrast material (in ml per l) is described by: S(t)=p+qC(t) (1) where p and q are parameters to be determined.
Enhancement, E(t), is defined as the difference in signal intensities before and after contrast material injection: E(t)=S(t)−S(t0)=q[C(t)−C(t0)] (2)
The experimental factor that converts HU units to contrast material concentration units can be determined by preparing tubes with different concentrations of Ultravist 300 in normal saline. The tubes can then be scanned by the CT.
For example, for prepared concentrations, C (in ml Ultravist 300 per 1 saline), may be in the range of 0 to 2% (20 ml per l) which is approximately the concentration in the blood after the injection. […] (The dose of 1.5 ml/kg in a 70 kg patient corresponds to ˜20 ml/l, about 2% in blood.)
The contrast agent for the CT was Iopromide (Ultravist 300; Schering) at a dose of 1.5 ml/kg, delivered through the antecubital vein at a rate of 3 ml/sec using an automatic injector (EnVision CT™). The patients were instructed to hold their breath following maximal expiration during the scanning, to decrease movement.
For each patient, the inventors recorded the signal intensity, S, of a central ROI in the aorta before contrast administration and at a selected time point after contrast injection. The inventors in the research study used the relation between HU and concentration units of Ultravist 300 (see above) to convert the measured enhancement to the corresponding concentration in the aorta, Cp(t), assuming similar pharmacokinetics for all patients with normal kidney function. Cp(t) in ml contrast agent per liter blood was fitted to the equation: Cp(t)=D(a1e^−m1^t+a2e^−m2^t) D=dose in ml/kg […] Eq. 3. to obtain: a1=8.48 kg/l, a2=7.34 kg/l, m1=1.43 min^−1, m2=0.1 min^−1.
FIG. 2 illustrates enhancement (as defined in Eq. 2) in the aorta as a function of time after Iopromide (ultravist 300) injection at a dose of 0.15 ml/kg. The decay in the enhancement followed eq. 3 using the concentration to enhancement conversion (equation 2).

a1 (amplitude of Cp(t)=D(a1e^-m1t+a2e^-m2t)) [2]: 8.48 kg/L
a2 (amplitude of Cp(t)=D(a1e^-m1t+a2e^-m2t)) [2]: 7.34 kg/L
m1 (decay rate constant of Cp(t)) [2]: 1.43 min⁻¹
m2 (decay rate constant of Cp(t)) [2]: 0.1 min⁻¹
SMILES: COCC(=O)Nc1c(I)c(C(=O)NCC(O)CO)c(I)c(C(=O)N(C)CC(O)CO)c1I (stereo not shown) [Iopromide]
fraction of the dosage excreted in feces ([1]; following IV administration): 1.5%
half-life of distribution in the extracellular space ([1]; following IV administration): 3 min
elimination half-life ([1]; patients of normal kidney function, irrespective of the dose): ~2 h
